{
  "source": "patent US4581359A",
  "about": "“Pharmacological treatments with N-7-substituted derivatives of theophylline” (priority 1984, dated 1986)",
  "key": {"in vivo": {"test": "in vivo", "conditions": "rabbit", "description": "All experiments of this example were performed using female New Zealand White rabbits. These rabbits (2.4-3.6 kg) were housed in a controlled environment and allowed free access to water and food.\nBefore dosing with drug the rabbit ear hair was clipped and treated with hair remover lotion (sold under the trademark NAIR, Carter-Wallace, Inc., New York, N.Y.), a catheter (Quick-Cath, 20 Ga, Travenol Laboratories, Inc., Deerfield, Ill.) and sterile intermittent infusion plug were then inserted in the rabbit's ear vein for infusion. […] For each separate administration of theophylline, a suitable amount of aminophylline (40 mg/kg) was dissolved in distilled water to make 10 ml injectable solution which was administered into a rabbit's ear vein as a continuous infusion over a period of 15 minutes.\nBlood samples were collected from an ear vein (in the opposite ear from the infusion) at predetermined time intervals. Before collecting each sample, the rabbit ear was treated topically with xylene to dilate the ear vein for convenient sample collection. Immediately after each blood sample was drawn, 0.4 ml of blood was transfered to the centrifuge tube and 0.4 ml of acetronitrile with appropriate internal standard was added to precipitate the protein and extract drug components. After vortexing well, the blood acetonitrile mixture was centrifuged at 3000×G for ten minutes, and 10 μl of supernatent solution was then injected into the HPLC.\nThe post infusion data of theophylline were fitted to a two-compartment open model using the same procedure as described above. Although samples were collected while infusion of dyphylline was continuing, only post infusion data were used for dyphylline pharmacokinetic analysis."}, "[1]": {"test": "Concomitant dyphylline and aminophylline in two horses: plasma concentration, blood pressure, pulse (Example 3)", "conditions": "horse, plasma, iv, 20 mg/kg, dyphylline peak plasma concentration, 20 mg/kg bolus", "quoted_text": "Two horses were administered dyphylline and aminophylline concomitantly.\nThe second horse was given a bolus injection of dyphylline (20 mg/kg as 100 mg/ml solution in D5W) over 15 seconds into the jugular vein. Aminophylline infusion (10 mg/kg dissolved in one liter of D5W) was started immediately and administered over 20 minutes."}, "[2]": {"test": "Literature: pharmacokinetics of dyphylline and related derivatives in humans", "conditions": "human, in vivo, from Simons et al., read-out: Total Vd", "source_text": "Simons, et al., Allergy and Clin. Immunol. (1975) report the pharmacokinetics of dyphylline from seven different doses in seven patients and treat dyphylline as a one-compartment drug which means that Vc would be equal to Vd total since only one compartment is involved. This is, however, inconsistent with the data reported in the above-mentioned articles by Lawyer et al. Also, the data of Simons et al. (1975) can be used to generate the following lists wherein the estimated total volume of distribution of dyphylline (total Vd) is calculated from data presented by using the equation Vd=Dose/(Kel)(AUC): […]"}, "[3]": {"conditions": "cited from earlier work"}, "[4]": {"conditions": "cited from earlier work", "remark": "listed apart in the source"}, "[5]": {"conditions": "cited from earlier work", "remark": "listed apart in the source"}, "clinical": {"test": "clinical", "assay_type": "in vivo", "conditions": "for Cmax: iv, 1000 mg, after 20-minute intravenous infusion of 1000 mg", "quoted_text": "To confirm the data shown in Table XI, dyphylline, 1000 mg, was administered to twelve healthy male volunteers as a zero-order infusion (50 mg/min) or as three conventional tablets (2×400 mg, 1×200 mg)."}, "[6]": {"test": "Literature: pharmacokinetics of dyphylline and related derivatives in humans", "conditions": "human, in vivo; for Vd/F: po, analysis of Gisclon oral data"}, "[7]": {"conditions": "intravenous, per day per 70 kg person, Zuidema"}},
  "note": "Like-named read-outs stand apart in the source and are kept apart here.",
  "data": [
    {"molecule": "Cn1c(=O)c2c(ncn2CC(O)CO)n(C)c1=O", "note": "(stereo not drawn) [dyphylline, dihydroxypropyl theophylline]", "values": [
      {"measurement": "effect of dyphylline on half-life of theophylline", "setting": "in vivo", "result": "does not appear to alter the half-life of theophylline"},
      {"measurement": "plasma concentration of dyphylline not toxic in the presence of about 100 mcg/ml theophylline", "setting": "in vivo", "result": "about 600 mcg/ml"},
      {"measurement": "Vd", "setting": "in vivo; iv, 666.7 mg/kg, average apparent volume of distribution of dyphylline administered with theophylline", "result": 0.41, "unit": "L/kg"},
      {"measurement": "Cmax", "setting": "[1]; first value, presumably first horse", "result": 46, "unit": "µg/mL"},
      {"measurement": "Cmax", "setting": "[1]; second value, presumably second horse", "result": 88, "unit": "µg/mL"},
      {"measurement": "Vd", "setting": "[2]; 10 mg/kg, 10 mg/kg alcoholic solution with glycerol-guaiacolate solution", "result": 0.77, "unit": "L/kg"},
      {"measurement": "Vd", "setting": "[2]; 10 mg/kg, 10 mg/kg alcoholic solution", "result": 0.98, "unit": "L/kg"},
      {"measurement": "Vd", "setting": "[2]; 10 mg/kg, 10 mg/kg aqueous", "result": 0.93, "unit": "L/kg"},
      {"measurement": "Vd/F", "setting": "[2]; im, 5 mg/kg, 5 mg/kg intramuscular", "result": 0.58, "unit": "L/kg"},
      {"measurement": "Vd/F", "setting": "[2]; im, 10 mg/kg, 10 mg/kg intramuscular", "result": 0.8, "unit": "L/kg"},
      {"measurement": "Vd/F", "setting": "[2]; po, 5 mg/kg, 5 mg/kg tablet", "result": 0.58, "unit": "L/kg"},
      {"measurement": "Vd/F", "setting": "[2]; po, 10 mg/kg, 10 mg/kg tablet", "result": 0.72, "unit": "L/kg"},
      {"measurement": "lowest therapeutic response toxic level in steady state", "setting": "[3]; blood, calculated by Zuidema from data of Svedmyr", "result": 90, "unit": "µg/mL"},
      {"measurement": "calculated probable dosage to produce 40 mcg/ml in blood", "setting": "[3]; [7]", "result": 13.7, "unit": "gm"},
      {"measurement": "calculated probable dosage to produce 90 mcg/ml in blood", "setting": "[3]; [7]", "result": 30.8, "unit": "gm"},
      {"measurement": "time post dosing to achieve plasma concentrations", "setting": "[4]; Joos et al.", "result": 90, "unit": "min"},
      {"measurement": "plasma concentration of dyphylline", "setting": "[4]; combined with theophylline and proxyphylline (Bracher; Werdermann)", "result": "less than 3.0 mcg/ml"},
      {"measurement": "plasma concentration, each drug", "setting": "[4]; dyphylline and proxyphylline (Joos et al.), 90 min", "result": "about 13 mcg/ml"},
      {"measurement": "water solubility", "setting": "[5]", "result": "high water solubility"},
      {"measurement": "drug related toxicities", "setting": "clinical; human, in vivo", "result": "No subjects reported any drug related toxicities"},
      {"measurement": "Cmax", "setting": "clinical; human, plasma, read-out: Maximum plasma concentration, average", "result": 30100, "unit": "ng/mL"},
      {"measurement": "Cmax", "setting": "clinical; human, plasma, read-out: Maximum plasma concentration, range", "result": "18400 to 46800", "unit": "ng/mL"},
      {"measurement": "Vd", "setting": "clinical; human, plasma, 1000 mg IV, twelve volunteers, standard deviation 0.08, read-out: average total volume of distribution, IV", "result": 0.78, "unit": "L/kg"},
      {"measurement": "difference between predose and peak drug effects on blood pressure and heart rate", "setting": "clinical; α=0.05 level", "result": "not statistically significant"},
      {"measurement": "Vd", "setting": "[6]; from Simons et al., read-out: Vd, range over dosage forms", "result": "0.58 to 0.98", "unit": "L/kg"},
      {"measurement": "Vd/F", "setting": "[6]; 77.0 kg, complete bioavailability, read-out: central compartment volume", "result": "~52", "unit": "L"},
      {"measurement": "Vd/F", "setting": "[6]; 77.0 kg, complete bioavailability, read-out: total volume of distribution", "result": "~67", "unit": "L"},
      {"measurement": "Vd/F", "setting": "[6]; 84 percent bioavailability, read-out: Vc", "result": "~0.6", "unit": "L/kg"},
      {"measurement": "Vd/F", "setting": "[6]; 84 percent bioavailability, read-out: Vd", "result": "~0.73", "unit": "L/kg"},
      {"measurement": "Vd/F", "setting": "[6]; bioavailability 84 percent, read-out: central compartment volume", "result": "~44", "unit": "L"},
      {"measurement": "Vd/F", "setting": "[6]; bioavailability 84 percent, read-out: total volume of distribution", "result": "~56", "unit": "L"},
      {"measurement": "Vd/F", "setting": "[6]; total bioavailability, read-out: Vc", "result": "~0.68", "unit": "L/kg"},
      {"measurement": "Vd/F", "setting": "[6]; total bioavailability, read-out: Vd total", "result": "~0.87", "unit": "L/kg"}
    ]}
  ]
}
